From PubChem BioAssay (NCI)
Where “and” joins values, the source holds several entries; their conditions need not be identical. Equal entries are not always repeated.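 Method: 48-hour compound exposure of cells in 96-well plates, five concentrations, linear interpolation of endpoints. GI50 marks 50% less growth. TGI: total growth inhibition.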

Legend:
Test in all cases: inhibition of tumour cell growth, NCI panel, 48 h
U251 CNS = tested on: U251 CNS
SK-OV-3 ovarian = tested on: SK-OV-3 ovarian
SF-539 CNS = tested on: SF-539 CNS
HOP-92 NSCLC = tested on: HOP-92 NSCLC
MCF7 breast = tested on: MCF7 breast
OVCAR-8 ovarian = tested on: OVCAR-8 ovarian
LOX IMVI melanoma = tested on: LOX IMVI melanoma
NCI-H226 lung = tested on: NCI-H226 lung
NCI-H460 lung = tested on: NCI-H460 lung
OVCAR-3 ovarian = tested on: OVCAR-3 ovarian

Row | Compound | TGI (U251 CNS) | GI50 (SK-OV-3 ovarian) | TGI (SK-OV-3 ovarian) | GI50 (SF-539 CNS) | TGI (SF-539 CNS) | GI50 (HOP-92 NSCLC) | TGI (HOP-92 NSCLC) | TGI (MCF7 breast) | GI50 (OVCAR-8 ovarian) | TGI (OVCAR-8 ovarian) | GI50 (LOX IMVI melanoma) | TGI (LOX IMVI melanoma) | TGI (NCI-H226 lung) [µM] | TGI (NCI-H460 lung) [µM] | TGI (OVCAR-3 ovarian) [µM] | GI50 (U251 CNS) [µM] | GI50 (NCI-H226 lung) [µM] | GI50 (NCI-H460 lung) [µM] | GI50 (MCF7 breast) [µM] | GI50 (OVCAR-3 ovarian) [µM]
1 | CN1CCc2cc3c(cc2C1O)OCO3 (configuration not stated) | 22.9 µM and > 100 µM | 17.5 µM and > 100 µM | 31.7 µM and > 100 µM | 12.8 µM and > 100 µM | 29.4 µM and > 100 µM | 20.8 µM and > 100 µM | 39 µM and > 100 µM | 23.3 µM and > 100 µM | 21.6 µM and > 100 µM | 51.6 µM and > 100 µM | 17.4 µM and > 100 µM | 40.3 µM and > 100 µM | – | – | – | – | – | – | – | –
2 | COc1ccc(/C=C2\CN(C)Cc3c2nc(N)nc3-c2ccc(OC)cc2)cc1 | > 100 µM | – | > 100 µM | – | > 100 µM | – | – | – | – | > 100 µM | – | > 100 µM | > 100 | > 100 | > 100 | – | – | – | – | –
3 | COc1ccc(/C(=N/NC(N)=O)C2(O)C(=O)Nc3ccc([N+](=O)[O-])cc32)cc1 (configuration not stated) | > 10 µM | – | > 100 µM | – | 31.3 µM | – | 45.4 µM | – | – | 47.7 µM | – | – | > 100 | 39.4 | 33.1 | – | – | – | – | –
4 | Cc1ccc(NCCCN2CCN(CCCNc3ccc(C)c4sc5ccccc5c(=O)c34)CC2)c2c(=O)c3ccccc3sc12 | > 100 µM | – | > 100 µM | – | > 100 µM | – | – | > 100 µM | – | > 100 µM | – | > 100 µM | > 100 | > 100 | > 100 | – | – | – | – | –
5 | COc1cc(CCc2cccnc2)cc(OC)c1OC | > 100 µM | – | – | – | > 100 µM | – | > 100 µM | – | – | > 100 µM | – | > 100 µM | > 100 | > 100 | > 100 | – | – | – | – | –
6 | N#C/C(=C\c1ccccc1O)C(N)=O | > 100 µM | – | > 100 µM | – | > 100 µM | – | > 100 µM | – | – | > 100 µM | – | > 100 µM | > 100 | > 100 | > 100 | – | – | – | – | –
7 | CCOc1ccccc1NC(=O)CCC(=O)OC | > 71.1 µM | – | > 100 µM | – | – | – | > 100 µM | – | – | > 100 µM | – | > 31.6 µM | > 100 | > 100 | > 100 | – | – | – | – | –
8 | CC(=O)C1=C(O)C=C2Oc3c(C(=O)/C=C/c4cc(C(F)(F)F)cc(C(F)(F)F)c4)c(O)c(C)c(O)c3[C@]2(C)C1=O | 1.7 µM | 1.07 µM | 5.98 µM | 1.4 µM | 4.53 µM | – | – | 1.7 µM | 0.496 µM | 1.91 µM | 0.511 µM | 1.89 µM | 5.15 | 1.9 | 2.27 | 0.532 | 2.34 | 0.521 | 0.427 | 0.543
9 | CC(C)(C)OC(=O)NCCNC1=CC(=O)c2nc3ccccc3c3ccnc1c23 | 65 µM | 43.3 µM | > 100 µM | 20.2 µM | 40.5 µM | 17.9 µM | 42.5 µM | 24.4 µM | 16.6 µM | > 100 µM | – | – | 52.8 | 43.1 | 67 | 18.8 | 21.1 | 15.2 | 7.42 | 13.8
10 | CC1=CCC[C@@]2(C)C(CC[C@@H]2C(C)/C=C/C(C)C)c2ccc(cc2C(=O)O)C[C@@H](O)CC1 (some centres not stated) | 16 µM | – | 32.3 µM | – | 21 µM | – | 28.9 µM | – | – | 33.3 µM | – | 19 µM | 32.7 | 20.1 | 26.8 | – | – | – | – | –
